Assay results from US20240316146A1, “METHODS OF REDUCING NEUROPATHY AND NEUROPATHIC SYMPTOMS AND TREATING CANCER” (Bexion Pharmaceuticals Inc., priority 2021, published 2024).
“And” between values parts separate entries of the source, which are not always exact repeats. Equal values may be shown once.

Columns and labels:
[1] = system: mouse oxaliplatin model of chemotherapy-induced neuropathy; test: Static mechanical (tactile) allodynia, von Frey filaments, Study 1; assay type: in vivo
Method: (§1) 60 adult male C57/BL6 mice (Charles River), 6-7 weeks of age, were housed in groups of 5 in Perspex cages, in a controlled environment of constant temperature and humidity (temperature: 21±1° C., light: dark cycle of 12:12 hours), with food and water available ad libitum. Animals were allowed to recover from transportation for at least one week before commencing experiments.
(§2) Static mechanical tactile allodynia: Static mechanical (tactile) allodynia was assessed by measurement of withdrawal threshold using calibrated (force; g) von-Frey monofilaments (Touch-Test Sensory Evaluator; Scientific Marketing Associates) applied to the plantar surface of the left hind-paw. The animals were placed in individual Perspex boxes on a raised metal mesh for 30-40 min before the test to habituate. A series of graduated von Frey hairs (0.07, 0.16, 0.4, 0.6 and 1 g) were applied in sequence with a protocol of 1 sec on 1 sec off repeated 10 times. Each hair was applied perpendicularly to the center of the ventral surface of the paw until it bent slightly. The force applied to the hind-paw of the animal to induce 5 responses out of 10 trials was recorded as paw withdrawal threshold (PWT) 50%.
(§3) Warm vials of BQX-350 were brought to room temperature and reconstituted with 4 mL water for injection via syringe. The vials were gently agitated and/or vortexed for 15-20 sec and allowed to sit at room temp for 5 mins. The rehydrated solution contained 2.2 mg/mL SapC (8.8 mg SapC per vial). About […] of the formulation was injected to achieve a target dose of 20 mg/kg in each mouse. Pregabalin was reconstituted in water and injected to achieve a target dose of 30 mg/kg in each mouse.
(§4) A two-way repeated measures ANOVA with ‘treatment’ as a between subjects effect, and ‘day’ as a within subjects effect was used (using GraphPad Prism version 9.0 for Windows, GraphPad Software, San Diego California USA), followed by Dunnett's multi comparisons test. Data is presented as mean±SEM.

[2] = system: mouse oxaliplatin model of chemotherapy-induced neuropathy; test: Thermal hypersensitivity, cold plate test 15° C., Study 1; assay type: in vivo
Method: as §1
(§5) Thermal hypersensitivity: Thermal hypersensitivity was assessed using a dynamic cold plate (Bioseb, France) set at a fixed temperature of 15° C. This method allows analysis of more integrated behaviors rather than reflex behaviors, e.g., the tail immersion test. In animal studies, thermal sensitivity is mostly evaluated based on nociceptive reaction latencies in response to a given thermal aversive stimulus. In this classical test, the temperature of the plate is fixed and remains constant: the latency to the first paw licking, jumps or withdrawal is taken as an index of nociceptive threshold. […] The results of the study are shown in Table 5 (raw data) below, Table 6 (summary) below, FIG. 4, and FIG. 5.
as §3, §4

[3] = system: mouse oxaliplatin model of chemotherapy-induced neuropathy; test: Static mechanical (tactile) allodynia, von Frey filaments, Study 2; assay type: in vivo; settings: for PWT 50% (left hind paw Paw Withdrawal Threshold 50%): Group E Oxaliplatin/Pregabalin 30 mg/kg (days 3, 5, 7, 9), N 12; for Individual Paw Withdrawal Threshold 50% (von Frey filaments): Study 2, oxaliplatin 10 mg/kg IP day 0 (+vehicle, BXQ-350 2 mg/kg IP or pregabalin 30 mg/kg IP), individual mice
Method: as §2, §1
Static mechanical tactile allodynia: The same apparatus and protocol were used as for Study 1.

[4] = system: mouse oxaliplatin model of chemotherapy-induced neuropathy; test: Thermal hypersensitivity, cold plate test, Study 2; settings: Group E Oxaliplatin/Pregabalin 30 mg/kg (days 3, 5, 7, 9), N 12
Method: as §5, §1
Thermal hypersensitivity: The same apparatus and protocol were used as for Study 1. The results of Study 2 are shown in Table 11 (raw data), Table 12 (summary), FIG. 8, and FIG. 9.

Body weights, Study 2 = assay type: in vivo, mouse; settings: Group E Oxaliplatin/Pregabalin, individual mice
Source text: Body Weights: The mice were weighed daily starting 1 day prior to treatment through day 9.

[5] = system: A549 tumor spheroids with PBMCs; test: 3D-tumor spheroid T-cell killing model (Incucyte); assay type: cell-based, human; settings: BXQ-350 1.3 nM to 2.8 μM or Pembrolizumab 50 μg/ml; PBMCs with activation cocktail; day 6
Method: A549 human lung cancer cells, transfected with a lentivirus, were seeded in 96-wells ultra-low attachment plates at a concentration of 750 cells/well. The plates were then centrifuged at 1200 rpm for 2 min, to promote agglomeration of the cells and formation of spheroids. The plates then were incubated for three days at 37° C. After three days, freshly isolated human peripheral blood mononuclear cells (PBMCs) were added to the spheroids at a concentration of 10,000 PBMCs/well. To various wells were added one or more of: an activation cocktail containing an anti-CD3 antibody at a final concentration of 1 ng/ml and IL-12 at a final concentration of 10 ng/ml; BXQ-350 in serial dilutions from 25 μM to 1.27 nM; a positive control of Pembrolizumab at 50 μg/ml. A negative control group had no additions to the spheroids and PBMCs. The final volume of each well was then adjusted to 200 μL per well.
Plates were then left to incubate for an additional 30 minutes before being placed in the Incucyte® live cells analyzer; fluorescence was analyzed every 4 hours for 6 days. Images were then analyzed using the Incucyte® software to determine the IC50. Increased fluorescence intensity in A549 tumor cell spheroids correlates to an increased number of live Luc-A549 cells in the spheroids, and a lack of fluorescence denotes cell death.

[6] = oxaliplatin 10 mg/kg IP day 0 (+vehicle, BXQ-350 20 mg/kg IP or pregabalin 30 mg/kg IP), Baseline, individual mice
[7] = oxaliplatin 10 mg/kg IP day 0 (+vehicle, BXQ-350 20 mg/kg IP or pregabalin 30 mg/kg IP), Day 3, individual mice
[8] = oxaliplatin 10 mg/kg IP day 0 (+vehicle, BXQ-350 20 mg/kg IP or pregabalin 30 mg/kg IP), group mean
[9] = oxaliplatin treated animals, day 3 to day 9, BXQ-350 20 mg/kg, pregabalin 30 mg/kg 2 hours before assessment
[10] = cold plate 15° C., oxaliplatin 10 mg/kg IP day 0 (+vehicle, BXQ-350 20 mg/kg IP or pregabalin 30 mg/kg IP), group mean

## CC(C)C[C@H](CN)CC(=O)O [Pregabalin]
[1]; [6]
  Individual Paw Withdrawal Threshold 50% (von Frey filaments): 0.8 g (4×) and 0.6 g (2×) and 1.0 g (2×) and 0.4 g (2×) and 0.7 g and 0.5 g
[1]; [7]
  Individual Paw Withdrawal Threshold 50% (von Frey filaments): 1.0 g (3×) and 0.6 g
[1]; [8]
  PWT 50% (g) Baseline: 0.698 g
  PWT 50% (g) D3: *0.733 g
  PWT 50% (g) D5: ***0.800 g
  PWT 50% (g) D7: **0.733 g
  PWT 50% (g) D9: ****0.883 g
[1]; [9]
  mechanical allodynia (in words): reduced mechanical allodynia
[2]; [10]
  Latency (s) Baseline: 53.629 s
  Latency (s) D 3: 49.400 s
  Latency (s) D 5: 50.000 s
  Latency (s) D 7: 47.183 s
  Latency (s) D 9: 59.300 s
[2]; [6]
  Individual latency to displaying withdrawal behaviour in the cold plate test: 52.9 s and 74.9 s and 74.7 s and 57.3 s and 48.6 s and 40.2 s and 57.5 s and 67.5 s and 38.5 s and 44.8 s and 41.3 s and 45.6 s
[2]; [7]
  Individual latency to displaying withdrawal behaviour in the cold plate test: 56.7 s and 52.4 s and 44.4 s and 62.3 s and 57.6 s and 46.9 s and 63.6 s and 40.8 s and 58.2 s and 36.5 s and 52.5 s and 20.9 s
[2]; oxaliplatin 10 mg/kg IP day 0 (+vehicle, BXQ-350 20 mg/kg IP or pregabalin 30 mg/kg IP), Day 5, individual mice
  Individual latency to displaying withdrawal behaviour in the cold plate test: 22.2 s and 43.5 s and 91.7 s and 73.6 s and 41.5 s and 39.3 s and 61.3 s and 40.1 s and 30.1 s and 42.7 s and 45.2 s and 68.8 s
[2]; oxaliplatin 10 mg/kg IP day 0 (+vehicle, BXQ-350 20 mg/kg IP or pregabalin 30 mg/kg IP), Day 7, individual mice
  Individual latency to displaying withdrawal behaviour in the cold plate test: 60.2 s and 40.3 s and 72.5 s and 98.2 s and 55.5 s and 29.3 s and 32.1 s and 35.2 s and 35.8 s and 32.5 s and 31.4 s and 43.2 s
[2]; oxaliplatin 10 mg/kg IP day 0 (+vehicle, BXQ-350 20 mg/kg IP or pregabalin 30 mg/kg IP), Day 9, individual mice
  Individual latency to displaying withdrawal behaviour in the cold plate test: 37.8 s and 71.7 s and 75.8 s and 54.0 s and 72.7 s and 34.6 s and 84.7 s and 71.5 s and 74.9 s and 42.7 s and 38.9 s and 52.3 s
[2]; [9]
  thermal (cold) sensitivity, cold plate test (in words): reduced thermal sensitivity
[3]; D3, mean (SEM)
  PWT 50% (left hind paw Paw Withdrawal Threshold 50%): ****0.933 g
[3]; D5, mean (SEM)
  PWT 50% (left hind paw Paw Withdrawal Threshold 50%): ****0.833 g
[3]; D7, mean (SEM)
  PWT 50% (left hind paw Paw Withdrawal Threshold 50%): ****0.817 g
[3]; D9, mean (SEM)
  PWT 50% (left hind paw Paw Withdrawal Threshold 50%): ****0.967 g
[3]; D −1, mean (SEM)
  PWT 50% (left hind paw Paw Withdrawal Threshold 50%): 0.697 g
[3]; D −2, mean (SEM)
  PWT 50% (left hind paw Paw Withdrawal Threshold 50%): 0.600 g
[3]; D −3, mean (SEM)
  PWT 50% (left hind paw Paw Withdrawal Threshold 50%): 0.633 g
[3]; D 3
  Individual Paw Withdrawal Threshold 50% (von Frey filaments): 1.0 g (10×) and 0.6 g (2×)
[3]; D 5
  Individual Paw Withdrawal Threshold 50% (von Frey filaments): 1.0 g (7×) and 0.6 g (5×)
[3]; D 7
  Individual Paw Withdrawal Threshold 50% (von Frey filaments): 1.0 g (7×) and 0.6 g (4×) and 0.4 g
[3]; D 9
  Individual Paw Withdrawal Threshold 50% (von Frey filaments): 1.0 g (11×) and 0.6 g
[3]; D −1
  Individual Paw Withdrawal Threshold 50% (von Frey filaments): 1.0 g (5×) and 0.6 g (4×) and 0.4 g (2×) and 0.2 g
[3]; D −2
  Individual Paw Withdrawal Threshold 50% (von Frey filaments): 0.4 g (2×) and 0.6 g (9×) and 1.0 g
[3]; D −3
  Individual Paw Withdrawal Threshold 50% (von Frey filaments): 0.6 g (8×) and 1.0 g (2×) and 0.4 g (2×)
[4]; D3, mean (SEM)
  Latency to withdrawal behaviour in the cold plate test (15° C.): ***77.083 + s
[4]; D5, mean (SEM)
  Latency to withdrawal behaviour in the cold plate test (15° C.): 31.188 + s
[4]; D7, mean (SEM)
  Latency to withdrawal behaviour in the cold plate test (15° C.): *42.792 + s
[4]; D9, mean (SEM)
  Latency to withdrawal behaviour in the cold plate test (15° C.): 42.063 + s
[4]; D −1, mean (SEM)
  Latency to withdrawal behaviour in the cold plate test (15° C.): 43.175 + s
[4]; D −2, mean (SEM)
  Latency to withdrawal behaviour in the cold plate test (15° C.): 44.725 + s
[4]; D −3, mean (SEM)
  Latency to withdrawal behaviour in the cold plate test (15° C.): 43.908 + s
Body weights, Study 2; D 0
  Individual body weights: 21.9 g and 23.6 g (2×) and 28.1 g and 23.7 g and 25.7 g (2×) and 24.9 g and 21.8 g and 26.2 g and 23.4 g and 25.1 g
Body weights, Study 2; D 1
  Individual body weights: 21.6 g and 23.0 g and 26.8 g and 22.7 g and 25.2 g and 25.1 g and 23.1 g and 24.5 g and 23.6 g and 24.8 g and 22.6 g and 24.4 g
Body weights, Study 2; D 2
  Individual body weights: 21.8 g and 23.1 g and 27.0 g and 22.7 g and 25.1 g and 25.4 g and 23.8 g and 23.6 g and 23.4 g and 25.0 g and 22.8 g and 24.3 g
Body weights, Study 2; D 3
  Individual body weights: 21.8 g and 23.0 g and 26.6 g and 22.6 g and 24.7 g and 25.5 g and 23.4 g and 22.4 g and 22.9 g and 24.8 g and 22.8 g and 24.0 g
Body weights, Study 2; D 4
  Individual body weights: 21.8 g and 23.0 g and 27.0 g and 22.3 g and 25.0 g and 24.8 g and 23.4 g and 23.5 g and 23.7 g and 24.9 g and 23.1 g and 24.0 g
Body weights, Study 2; D 5
  Individual body weights: 21.4 g and 24.0 g and 27.6 g and 22.9 g
Body weights, Study 2; D −1
  Individual body weights: 21.9 g and 23.7 g and 27.9 g and 23.2 g (2×) and 23.4 g and 25.3 g and 23.3 g and 24.5 g and 24.2 g and 25.7 g and 24.8 g
Body weights, Study 2; D −2
  Individual body weights: 21.9 g and 23.1 g and 27.6 g and 22.7 g and 25.6 g and 25.9 g and 23.3 g and 24.6 g and 23.8 g and 25.4 g and 22.8 g and 24.4 g
Body weights, Study 2; D −3
  Individual body weights: 22.0 g and 23.0 g (4×) and 28.0 g and 26.0 g (3×) and 25.0 g (2×) and 24.0 g

## Pembrolizumab: positive control at 50 μg/ml in the spheroid model
[5]
  cell death of spheroids (in words): increased cell death by day 6
